Reference: the RepoRT retention time repository

Assay: RP, Waters CORTECS UPLC C18, 100 × 2.1 mm, 1.6 µm, 40 °C, 0.4 mL/min, estimated dead time 0.55 min; A: water + 0.1% formic acid, pH 3; B: acetonitrile + 0.1% formic acid, pH 3; gradient (min/%B) 0/5 1.12/5 6.41/99.5 10.01/99.5
Settings: stereoisomer not certain
With `CC1(C)CN=C(NN=C(C=Cc2ccc(C(F)(F)F)cc2)C=Cc2ccc(C(F)(F)F)cc2)NC1` [Hydramethylnon (Amdro)] the LC retention time was 5.14 min. `CC(CCC(=O)O)C1CCC2C3CC(O)C4CC(O)CCC4(C)C3CCC12C` (stereo not given) [Hyodeoxycholic acid] showed an LC retention time of 4.58 min. Work on `NC(=O)Cc1c[nH]c2ccccc12` [INDOLE-3-ACETAMIDE] yielded an LC retention time of 2.89 min. In the case of `OCCc1c[nH]c2ccccc12` [INDOLE-3-ETHANOL], the LC retention time is reported as 3.05 min. For `COC(=O)Cc1c[nH]c2ccccc12` [INDOLE-3-METHYL ACETATE], the LC retention time was 4.14 min. `O=CCc1c[nH]c2ccccc12` [INDOLEACETALDEHYDE] gave an LC retention time of 2.55 min. Work on `C=CCOC(Cn1ccnc1)c1ccc(Cl)cc1Cl` (stereo not given) [Imazalil] yielded an LC retention time of 3.88 min. For `O=[N+]([O-])NC1=NCCN1Cc1ccc(Cl)nc1` [Imidacloprid], the LC retention time was 3.19 min. With `O=C(O)CCCc1c[nH]c2ccccc12` [Indole-3-butyric acid] the LC retention time was 3.94 min. For `O=Cc1c[nH]c2ccccc12` [Indole-3-carboxaldehyde], the LC retention time was 3.28 min. `O=C(O)c1c[nH]c2ccccc12` [Indole-3-carboxylic acid] showed an LC retention time of 3.21 min. With `O=C(O)CCc1c[nH]c2ccccc12` [Indole-3-propionic acid] the LC retention time was 3.7 min. `COC(=O)N(C(=O)N1COC2(C(=O)OC)Cc3cc(Cl)ccc3C2=N1)c1ccc(OC(F)(F)F)cc1` (stereo not given) [Indoxacarb] gave an LC retention time of 5.75 min. In the case of `CC(C)C1CCC(Cc2ccc(Cl)cc2)C1(O)Cn1cncn1` (stereo not given) [Ipconazole], the LC retention time is reported as 5.48 min. In the case of `Cc1ccc(C(C)NC(=O)C(NC(=O)OC(C)C)C(C)C)cc1` (stereo not given) [Iprovalicarb], the LC retention time is reported as 4.86 min. With `CC(C)C(=O)OC(CC(=O)[O-])C[N+](C)(C)C` [Isobutyryl-L-carnitine] the LC retention time was 1.79 min. `COP(N)(=S)Oc1ccccc1C(=O)OC(C)C` (stereo not given) [Isocarbophos] gave an LC retention time of 2.32 min. Work on `CC(C)OC(=O)C(C(=O)OC(C)C)=C1SCCS1` [Isoprothiolane] yielded an LC retention time of 5.21 min. `CC(C)CC(=O)OC(CC(=O)[O-])C[N+](C)(C)C` [Isovaleryl-L-carnitine] gave an LC retention time of 2.61 min. For `CCC(C)(CC)c1cc(NC(=O)c2c(OC)cccc2OC)on1` [Isoxaben], the LC retention time was 5.08 min. Compound `CS(=O)(=O)c1cc(C(F)(F)F)ccc1C(=O)c1cnoc1C1CC1` [Isoxaflutole] has an LC retention time of 4.85 min. With `O=C(O)c1cc(=O)c2ccccc2[nH]1` [KYNURENATE] the LC retention time was 2.35 min. Compound `Nc1ccccc1C(=O)CC(N)C(=O)O` (stereo not given) [KYNURENINE] has an LC retention time of 1.19 min. Work on `CON=C(C(=O)OC)c1ccccc1COc1ccccc1C` [Kresoxim-methyl] yielded an LC retention time of 5.42 min. `O=C1CC[C@@H](C(=O)O)N1` [L-Pyroglutamic acid] showed an LC retention time of 0.71 min. `NC(=O)[C@@H](N)Cc1c[nH]c2ccccc12` [L-TRYPTOPHANAMIDE] showed an LC retention time of 1.79 min. For `NC(Cc1cc(I)c(Oc2ccc(O)c(I)c2)c(I)c1)C(=O)O` (stereo not given) [LIOTHYRONINE], the LC retention time was 3.71 min. With `Cc1cc2nc3[nH]c(=O)[nH]c(=O)c3nc2cc1C` [LUMICHROME] the LC retention time was 3.26 min. For `CCCCCCCCCCCC(=O)OC(CC(=O)[O-])C[N+](C)(C)C` [Lauroyl-L-carnitine], the LC retention time was 4.7 min. `O=c1[nH]c2c(c(=O)n1C1CCCCC1)CCC2` [Lenacil] gave an LC retention time of 3.96 min. With `CON(C)C(=O)Nc1ccc(Cl)c(Cl)c1` [Linuron] the LC retention time was 4.8 min. Work on `O=C(NC(=O)c1c(F)cccc1F)Nc1cc(Cl)c(OC(F)(F)C(F)C(F)(F)F)cc1Cl` (stereo not given) [Lufenuron] yielded an LC retention time of 5.91 min. Work on `COc1ccc2[nH]cc(CCNC(C)=O)c2c1` [MELATONIN] yielded an LC retention time of 3.31 min. `CSCC1OC(n2cnc3c(N)ncnc32)C(O)C1O` (stereo not given) [METHYLTHIOADENOSINE] showed an LC retention time of 2.19 min. Compound `COC(=O)CCCC(=O)O` [MONOMETHYLGLUTARATE] has an LC retention time of 2.47 min. In the case of `CCOC(=O)CC(SP(=O)(OC)OC)C(=O)OCC` (stereo not given) [Malaoxon], the LC retention time is reported as 4.05 min. Work on `C#CCOc1ccc(CCNC(=O)C(OCC#C)c2ccc(Cl)cc2)cc1OC` (stereo not given) [Mandipropamid] yielded an LC retention time of 4.95 min. Work on `CCOC(=O)N(C)C(=O)CSP(=S)(OCC)OCC` [Mecarbam] yielded an LC retention time of 5.34 min. In the case of `CC#Cc1cc(C)nc(Nc2ccccc2)n1` [Mepanipyrim], the LC retention time is reported as 5.11 min. Work on `COC(=O)c1ccc(CNS(C)(=O)=O)cc1S(=O)(=O)NC(=O)Nc1nc(OC)cc(OC)n1` [Mesosulfuron-methyl] yielded an LC retention time of 4.24 min. Compound `COCC(=O)N(c1c(C)cccc1C)C(C)C(=O)OC` (stereo not given) [Metalaxyl] has an LC retention time of 4.33 min. Compound `Cc1nnc(-c2ccccc2)c(=O)n1N` [Metamitron] has an LC retention time of 3.09 min. Work on `Cc1cccc(C)c1N(Cn1cccn1)C(=O)CCl` [Metazachlor] yielded an LC retention time of 4.52 min. Compound `CC1(C)CCC(Cc2ccc(Cl)cc2)C1(O)Cn1cncn1` (stereo not given) [Metconazole] has an LC retention time of 5.24 min. Work on `CNC(=O)N(C)c1nc2ccccc2s1` [Methabenzthiazurone] yielded an LC retention time of 4.12 min.
